In patent US20100209436A1, “METHOD FOR TREATING DISEASES RELATED TO MITOCHONDRIAL DYSFUNCTION” (priority 2007, published 2010):
Entries after “also recorded” stand apart in the source; their conditions may differ.

Columns and labels:
Assay type in all cases: cell-based, human
[1] = tested on: OPA1 isoforms in HeLa cells or fibroblasts; test: Uncoupler experiments: OPA1 isoform pattern by western blot; settings: CCCP 20 μM 6 h
Procedure: (§1) a, HeLa cells and human fibroblasts were treated with CCCP (20 μM) for 6 h and total cell extracts were subjected to western blotting with OPA1 antibodies. b-d, Cells were treated or not (Control) with CCCP (20 μM) for 30 min, washed, and incubated further with medium lacking CCCP for the indicated time periods or CCCP (20 μM) was left for 6 h. In parallel, these experiments were performed in the presence of cycloheximide (CHX; 175 μg/ml). Cells were stained with MitoTracker (red) and with cytochrome c antibodies (green).
d, OPA1 isoforms by western blot analysis. Extracts of untreated cells (C) and of cells treated for 6 h with CHX alone (+CHX 6 h) were used as controls.
It was further observed whether dissipation of the membrane potential is sufficient to trigger changes in abundance of OPA1 isoforms and fragmentation of mitochondria. […] Proteolytic processing occurs within mitochondria as shown by cellular fractionation experiments (FIG. 10c). This is specific for OPA1 since degradation of other mitochondrial proteins is not observed (FIG. 10c). Fragmentation of mitochondria occurred rapidly within 15 to 30 min after addition of CCCP (FIG. 9bc). Processing of OPA1 took place within the same narrow time frame (FIG. 9d). Impairment of fusion of mitochondria may therefore be due to rapid inactivation of OPA1 by proteolysis of large isoforms. […]

[2] = tested on: OPA1 isoforms in HeLa cells; test: Pulse-chase experiment of OPA1 isoforms; settings: 20 μM CCCP for 1 hour during chase
Procedure: HeLa cells were subjected to radioactive labeling of newly synthesized proteins. After labeling cells were washed, incubated for the indicated time in the absence of radiolabeled amino acids (chase) either in the presence or the absence of CCCP (20 μM). Cells were lysed at indicated times of chase and subjected to immunoprecipitation with antibodies raised against OPA1. Elution fractions were analyzed by digital autoradiography (top panel) and the same membrane was subjected to western blot analysis using OPA1 antibodies (bottom panel). The different OPA1 isoforms are indicated by arrows and named L1-, L2-, S3-, S4- and S5-OPA1.
The large OPA1 isoforms l-OPA1#1 and l-OPA1#2 are converted to the small OPA1 isoforms s-OPA1#3, s-OPA1#4 and/or s-OPA1#5. […] Then cells were washed 3 times with PBS and 1 ml fresh DMEM medium +10% FCS without radioactive methione (chase) was added. Cells were either treated with 20 μM CCCP for 1 hour or not. OPA1 was immunoprecipitated using an antibody raised against the C-terminus of OPA1 and OPA1 was detected by autoradiography and by western-blotting after SDS-PAGE. […] Accordingly, it can be concluded that l-OPA1 isoforms are actually converted to s-OPA1 isofoms, in particular towards s-OPA1#5.

[3] = tested on: OPA1 isoforms in HeLa cells; test: Ratios of OPA1 isoforms by western blot densitometry, uncoupler experiment
Procedure: as §1
Cell pellets were lysed in Lämmli-buffer 1× and heated for 5 min at 95° C. Samples equivalent to ˜10^6 cells were loaded on a 10% acrylamid gel (12 cm high×16 cm wide plates separated by 1.5 mm thick spacers). Gels were run for 3.5 hours at constant 30 mA or until the 37 kD band of the BioRad Precision Plus Protein standard reaches the bottom of the gel. The proteins were transferred to a nitrocellulose membrane by semi-dry blotting for 1.5 hours at 200 mA using Tris/glycine buffer. The membrane was incubated in TBS buffer containing 5% non fat milk powder for 30 min. The membrane was then incubated in TBS buffer containing 5% non fat milk powder and affinity purified rabbit OPA1 antibodies (raised against the C-terminal peptide of OPA1: […] (SEQ ID No: 30)) diluted 1:500 for 1 hour. After three rapid washes to remove the primary antibody in excess, the membrane was further incubated for 1 hour in TBS containing 5% non fat milk powder and secondary antibodies anti rabbit conjugated to HRP (horseradish peroxidase) diluted 1:10,000 (BioRad). The membrane was then washed in TBS, once rapidly, and four more times for 5 min each. ECL reagent (enhanced chemoluminescence reagent) was used to reveal the different OPA1 isoform bands on the membrane. Expositions of 1 to 2 min were usually sufficient to detect all OPA1 forms. The compositions of the buffers and gels to be employed are as follows.
From the results of the below described uncoupler experiments using HeLa cells (Example 9; FIG. 9a), the ratio of the relative amount of various OPA1 isoforms was determined. For this purpose, total protein extracts were separated by SDS-PAGE and immunoblotted using an antibody raised against the C-terminus of OPA1. The western blot was scanned and densitometrically analysed using standard imaging software. The intensity of each band was determined and the background intensity was subtracted.

HeLa cells [4] = test: Uncoupler experiments: mitochondrial morphology and cytochrome c by confocal fluorescence microscopy
Procedure: b, Quantification of mitochondrial morphology in cells: Tubular, at least one mitochondrial tubule of 5 μm or more; intermediate, at least one between 0.5 and 5 μm but none more than 5 μm; fragmented, none of more than 0.5 μm in length. Error bars represent standard deviation of five slides evaluated.
as §1
(§2) Live cells were fluorescently labeled with MitoTracker® Red CMXRos (Molecular probes, USA) for mitochondria or with 4′,6-diamidino-2-phenylindole dihydrochloride (DAPI; Molecular probes, USA) for the nucleus, subsequently fixed, and permeabilised. Immunostaining was carried out with mouse anti-cytochrome c monoclonal antibody (clone 6H2.B4; BD Biosciences) and chicken anti-GFP antibody (Ayes Lab Inc., USA). The following secondary antibodies conjugated to fluorescent dyes were used: Alexa Fluor® 488 anti-mouse IgG (H+L) (Molecular probes, USA), Cy3-conjugated anti-mouse IgG and Fluorescein (FITC)-conjugated anti-chicken IgG (Jackson Immunoresearch, USA). Cells were mounted with Prolong® Gold antifade reagent (Molecular probes, USA). All treatments were done according to the manufacturers' instructions. Mitochondrial morphology was analysed by confocal microscopy using a Zeiss LSM 510 (Carl Zeiss Microscopy, Jena, Germany) equipped with a 63× objective. For all imaging, 512×512 pixel images of single confocal planes were acquired and processed with the Bitplane Imaris 4 software. This technique was particularly employed for FIGS. 5 to 7 and 9 and the corresponding examples.

[5] = tested on: OPA1 processing in HeLa cells; test: Protease inhibitors on uncoupler-induced conversion of larger OPA1 isoforms to smaller isoforms; settings: HeLa cells preincubated 10 min with inhibitor, then CCCP 25 min
Procedure: a, The protease inhibitor o-phenanthroline (o-Phe) and partially DCI (3,4-Dichloroisocoumarin), but not phenylmethylsulphonylfluoride (PMSF) block uncoupler induced conversion of larger OPA1 isoforms to smaller isoforms. HeLa cells were preincubated for 10 min with or without the protease inhibitors at the indicated concentration before CCCP (20 μM) was added. Cells were further incubated for 25 min before they were harvested, lysed in loading buffer, loaded on a SDS-PAGE, and immunoblotted with OPA1 antibodies.

HeLa cells [6] = test: Staurosporine-induced apoptosis: mitochondrial fragmentation, cytochrome c release, OPA1 isoforms; settings: 1 μM staurosporine
Procedure: HeLa cells were treated with 1 μM staurosporine for the indicated time periods, stained with MitoTracker (red) and with cytochrome c antibodies (green).
b, Cells were classified. Tubular, at least one mitochondrial tubule of 5 μm or more; intermediate, at least one between 0.5 and 5 μm but none more than 5 μm; fragmented, none of more than 0.5 μm in length. A representative experiment out of three is shown.
c, Cells were classified for cytochrome c release by immunostaining. Not released, completely colocalised with MitoTracker; intermediate, partly co-localised with MitoTracker; and released, not co-localised with MitoTracker.
d, OPA1 protein isoforms were determined by western blot analysis of total cell extracts. Total cell extracts (C) and isolated mitochondria (M) from untreated HeLa cells were used as controls.
as §2

[7] = HeLa +CCCP (20 μM, 6 h), densitometry of western blot

N#CC(C#N)=NNc1cccc(Cl)c1 [CCCP, carbonyl cyanide 3-chlorophenylhydrazone]
change of OPA1 isoform pattern [1]: dramatic shift of OPA1 isoforms towards the smaller isoforms | change of OPA1 isoforms in pulse-chase (autoradiography and western blot) [2]: shift from the large isoforms to the short isoforms | OPA1#3 + #4 + #5/ all bands % [3, 7]: 93.0% | OPA1#3 + #5/ all bands % [3, 7]: 64.8% | OPA1#3/ all bands % [3, 7]: 19.2% | OPA1#4/ all bands % [3, 7]: 28.2% | OPA1#5/ all bands % [3, 7]: 45.6% | fold increase of OPA1#3 + #4 + #5/ all bands ([3]; HeLa +CCCP versus HeLa −CCCP): 2.0 fold | fold increase of OPA1#3 + #5/ all bands ([3]; HeLa +CCCP versus HeLa −CCCP): 3.2 fold | fold increase of OPA1#3/ all bands ([3]; HeLa +CCCP versus HeLa −CCCP): 1.9 fold | fold increase of OPA1#4/ all bands ([3]; HeLa +CCCP versus HeLa −CCCP): 1.0 fold | fold increase of OPA1#5/ all bands ([3]; HeLa +CCCP versus HeLa −CCCP): 4.4 fold | time to fragmentation of mitochondria after addition (HeLa cells [4]; CCCP 20 μM): 15 to 30 min | mitochondrial morphology upon removal of the uncoupler (HeLa cells [4]; CCCP 20 μM 30 min, then washed): normal mitochondrial morphology was recovered | cytochrome c release (HeLa cells [4]; CCCP treatment): not accompanied by cytochrome c release

O=c1oc(Cl)c(Cl)c2ccccc12 [DCI, 3,4-Dichloroisocoumarin]
block of uncoupler (CCCP 20 μM) induced proteolytic processing of OPA1 [5]: (at least partially) blocked

O=S(=O)(F)Cc1ccccc1 [PMSF, phenylmethylsulphonylfluoride]
block of uncoupler (CCCP 20 μM) induced proteolytic processing of OPA1 [5]: not

C[C@@H]1C[C@@H]([C@H](O)CC2CC(=O)NC(=O)C2)C(=O)[C@@H](C)C1 [cycloheximide]
recovery of tubular mitochondrial network and reappearance of large OPA1 isoforms after CCCP removal (HeLa cells [4]; CHX 175 μg/ml): impaired | effect on uncoupler-induced fragmentation and OPA1 processing (HeLa cells [4]; CHX 175 μg/ml with CCCP 20 μM): did not interfere

c1cnc2c(c1)ccc1cccnc12 [o-phenanthroline]
block of uncoupler (CCCP 20 μM) induced proteolytic processing of OPA1 [5]: block; also recorded: (at least partially) blocked | block of uncoupler (CCCP 20 μM) induced proteolytic processing of OPA1 ([5]; listed as ortho-phenanthroline): inhibited

CN[C@@H]1C[C@H]2O[C@@](C)([C@@H]1OC)n1c3ccccc3c3c4c(c5c6ccccc6n2c5c31)C(=O)NC4 [staurosporine]
time to fragmentation of mitochondria (HeLa cells [6]): 2 to 3 h | cells that released cytochrome c (HeLa cells [6]; only after 5-6 h): more than 50% | change of OPA1 isoforms (HeLa cells [6]; western blot): disappearance of the two largest OPA1 isoforms
